Patent US10807992B2, “Single enantiomer antiparasitic compounds” (priority 2017, dated 2020)
Like-named read-outs stand apart in the source and are kept apart here.

Test system: Aedes aegypti
Experiment: In vitro contact activity against adult mosquitoes (coated vial)
Method: Aedes aegypti (Louisiana Biologicals Inc., New Orleans, La.) eggs were allowed to hatch, close, and age between 3-5 days in an environmental chamber at 26° C., 80% humidity with light/dark cycles.
For mosquito assays, an aliquot from each compound stock was added to an acetone/triton solution to achieve the desired top doses for the study. Serial dilutions were conducted from the top dose (i.e. 50 ppm) to achieve the desired titration range for EC50 and EC90 determination. The final DMSO concentration in each test vial was 0.5%. A 459 μL aliquot of each compound formulation was transferred to a vial and vials were immediately placed on an unheated roller unit to allow for an even coating of the vial walls. The vials were loosely capped and allowed to dry for a minimum of four hours in a chemical fume hood.
For both contact and ingestion assays, five female Aedes aegypti adults were added to each vial or cage. The test vials for contact assays were held in an environmental chamber at 24° C., 80% humidity with light/dark cycles (12 hours each). The cages for mosquito ingestion assays were held in a temperature-controlled artificial feeding apparatus to allow continual access to organic bovine blood containing the desired concentration of compound. Fresh aliquots of compound-spiked bovine blood were provided daily for the duration of the study.
Mosquitoes showing no movement or mosquitoes that were knocked down were noted as dead. Results from trial 1 and trial 2 contact assays are shown in Tables 12 and 13, respectively and the results from trial 3 mosquito ingestion assay is shown in table 14.
For the mosquito contact and ingestion assays, each replicate contained 5 mosquitoes. For ease of calculation, the two replicates were added to equal a total of 10 mosquitoes.

Compound: O=C(CC(F)(F)F)N1CC2(C1)OCc1cc(C3=NSC(c4cc(Cl)c(F)c(Cl)c4)(C(F)(F)F)C3)ccc12 (racemic) [C1 racemate, 1-[6-[5-(3,5-dichloro-4-fluoro-phenyl)-5-(trifluoromethyl)-4H-isothiazol-3-yl]spiro[1H-isobenzofuran-3,3′-azetidine]-1′-yl]-3,3,3-trifluoro-propan-1-one]
- mortality at 0.049 µM (0.5 h, read-out: % Mortality R1 + R2, Trial 1, contact assay, dose 0.049 μM, 0.5 Hr): 0%
- mortality at 0.2 µM (0.5 h, read-out: % Mortality R1 + R2, Trial 1, contact assay, dose 0.20 μM, 0.5 Hr): 0%
- mortality at 0.78 µM (0.5 h, read-out: % Mortality R1 + R2, Trial 1, contact assay, dose 0.78 μM, 0.5 Hr): 0%
- mortality at 3.125 µM (0.5 h, read-out: % Mortality R1 + R2, Trial 1, contact assay, dose 3.125 μM, 0.5 Hr): 0%
- mortality at 12.5 µM (0.5 h, read-out: % Mortality R1 + R2, Trial 1, contact assay, dose 12.5 μM, 0.5 Hr): 0%
- mortality at 50 µM (0.5 h, read-out: % Mortality R1 + R2, Trial 1, contact assay, dose 50 μM, 0.5 Hr): 0%
- mortality at 0.049 µM (0.5 h, read-out: % Mortality R1 + R2, Trial 2, contact assay, dose 0.049 μM, 0.5 Hr): 0%
- mortality at 0.2 µM (0.5 h, read-out: % Mortality R1 + R2, Trial 2, contact assay, dose 0.20 μM, 0.5 Hr): 0%
- mortality at 0.78 µM (0.5 h, read-out: % Mortality R1 + R2, Trial 2, contact assay, dose 0.78 μM, 0.5 Hr): 0%
- mortality at 3.125 µM (0.5 h, read-out: % Mortality R1 + R2, Trial 2, contact assay, dose 3.125 μM, 0.5 Hr): 0%
- mortality at 12.5 µM (0.5 h, read-out: % Mortality R1 + R2, Trial 2, contact assay, dose 12.5 μM, 0.5 Hr): 0%
- mortality at 50 µM (0.5 h, read-out: % Mortality R1 + R2, Trial 2, contact assay, dose 50 μM, 0.5 Hr): 0%
- mortality at 0.049 µM (1 h, read-out: % Mortality R1 + R2, Trial 1, contact assay, dose 0.049 μM, 1 hr): 0%
- mortality at 0.2 µM (1 h, read-out: % Mortality R1 + R2, Trial 1, contact assay, dose 0.20 μM, 1 hr): 0%
- mortality at 0.78 µM (1 h, read-out: % Mortality R1 + R2, Trial 1, contact assay, dose 0.78 μM, 1 hr): 0%
- mortality at 3.125 µM (1 h, read-out: % Mortality R1 + R2, Trial 1, contact assay, dose 3.125 μM, 1 hr): 0%
- mortality at 12.5 µM (1 h, read-out: % Mortality R1 + R2, Trial 1, contact assay, dose 12.5 μM, 1 hr): 0%
- mortality at 50 µM (1 h, read-out: % Mortality R1 + R2, Trial 1, contact assay, dose 50 μM, 1 hr): 0%
- mortality at 0.049 µM (1 h, read-out: % Mortality R1 + R2, Trial 2, contact assay, dose 0.049 μM, 1 hr): 0%
- mortality at 0.2 µM (1 h, read-out: % Mortality R1 + R2, Trial 2, contact assay, dose 0.20 μM, 1 hr): 0%
- mortality at 0.78 µM (1 h, read-out: % Mortality R1 + R2, Trial 2, contact assay, dose 0.78 μM, 1 hr): 0%
- mortality at 3.125 µM (1 h, read-out: % Mortality R1 + R2, Trial 2, contact assay, dose 3.125 μM, 1 hr): 0%
- mortality at 12.5 µM (1 h, read-out: % Mortality R1 + R2, Trial 2, contact assay, dose 12.5 μM, 1 hr): 0%
- mortality at 50 µM (1 h, read-out: % Mortality R1 + R2, Trial 2, contact assay, dose 50 μM, 1 hr): 0%
- mortality at 0.049 µM (6 h, read-out: % Mortality R1 + R2, Trial 1, contact assay, dose 0.049 μM, 6 hr): 0%
- mortality at 0.2 µM (6 h, read-out: % Mortality R1 + R2, Trial 1, contact assay, dose 0.20 μM, 6 hr): 0%
- mortality at 0.78 µM (6 h, read-out: % Mortality R1 + R2, Trial 1, contact assay, dose 0.78 μM, 6 hr): 0%
- mortality at 3.125 µM (6 h, read-out: % Mortality R1 + R2, Trial 1, contact assay, dose 3.125 μM, 6 hr): 0%
- mortality at 12.5 µM (6 h, read-out: % Mortality R1 + R2, Trial 1, contact assay, dose 12.5 μM, 6 hr): 0%
- mortality at 50 µM (6 h, read-out: % Mortality R1 + R2, Trial 1, contact assay, dose 50 μM, 6 hr): 80%
- mortality at 0.049 µM (6 h, read-out: % Mortality R1 + R2, Trial 2, contact assay, dose 0.049 μM, 6 hr): 0%
- mortality at 0.2 µM (6 h, read-out: % Mortality R1 + R2, Trial 2, contact assay, dose 0.20 μM, 6 hr): 0%
- mortality at 0.78 µM (6 h, read-out: % Mortality R1 + R2, Trial 2, contact assay, dose 0.78 μM, 6 hr): 0%
- mortality at 3.125 µM (6 h, read-out: % Mortality R1 + R2, Trial 2, contact assay, dose 3.125 μM, 6 hr): 0%
- mortality at 12.5 µM (6 h, read-out: % Mortality R1 + R2, Trial 2, contact assay, dose 12.5 μM, 6 hr): 10%
- mortality at 50 µM (6 h, read-out: % Mortality R1 + R2, Trial 2, contact assay, dose 50 μM, 6 hr): 100%
- mortality at 0.049 µM (12 h, read-out: % Mortality R1 + R2, Trial 1, contact assay, dose 0.049 μM, 12 hr): 0%
- mortality at 0.2 µM (12 h, read-out: % Mortality R1 + R2, Trial 1, contact assay, dose 0.20 μM, 12 hr): 0%
- mortality at 0.78 µM (12 h, read-out: % Mortality R1 + R2, Trial 1, contact assay, dose 0.78 μM, 12 hr): 0%
- mortality at 3.125 µM (12 h, read-out: % Mortality R1 + R2, Trial 1, contact assay, dose 3.125 μM, 12 hr): 0%
- mortality at 12.5 µM (12 h, read-out: % Mortality R1 + R2, Trial 1, contact assay, dose 12.5 μM, 12 hr): 0%
- mortality at 50 µM (12 h, read-out: % Mortality R1 + R2, Trial 1, contact assay, dose 50 μM, 12 hr): 100%
- mortality at 0.049 µM (12 h, read-out: % Mortality R1 + R2, Trial 2, contact assay, dose 0.049 μM, 12 hr): 0%
- mortality at 0.2 µM (12 h, read-out: % Mortality R1 + R2, Trial 2, contact assay, dose 0.20 μM, 12 hr): 0%
- mortality at 0.78 µM (12 h, read-out: % Mortality R1 + R2, Trial 2, contact assay, dose 0.78 μM, 12 hr): 0%
- mortality at 3.125 µM (12 h, read-out: % Mortality R1 + R2, Trial 2, contact assay, dose 3.125 μM, 12 hr): 0%
- mortality at 12.5 µM (12 h, read-out: % Mortality R1 + R2, Trial 2, contact assay, dose 12.5 μM, 12 hr): 80%
- mortality at 50 µM (12 h, read-out: % Mortality R1 + R2, Trial 2, contact assay, dose 50 μM, 12 hr): 100%
- mortality at 0.049 µM (24 h, read-out: % Mortality R1 + R2, Trial 1, contact assay, dose 0.049 μM, 24 hr): 0%
- mortality at 0.2 µM (24 h, read-out: % Mortality R1 + R2, Trial 1, contact assay, dose 0.20 μM, 24 hr): 0%
- mortality at 0.78 µM (24 h, read-out: % Mortality R1 + R2, Trial 1, contact assay, dose 0.78 μM, 24 hr): 0%
- mortality at 3.125 µM (24 h, read-out: % Mortality R1 + R2, Trial 1, contact assay, dose 3.125 μM, 24 hr): 0%
- mortality at 12.5 µM (24 h, read-out: % Mortality R1 + R2, Trial 1, contact assay, dose 12.5 μM, 24 hr): 90%
- mortality at 50 µM (24 h, read-out: % Mortality R1 + R2, Trial 1, contact assay, dose 50 μM, 24 hr): 100%
- mortality at 0.049 µM (24 h, read-out: % Mortality R1 + R2, Trial 2, contact assay, dose 0.049 μM, 24 hr): 0%
- mortality at 0.2 µM (24 h, read-out: % Mortality R1 + R2, Trial 2, contact assay, dose 0.20 μM, 24 hr): 0%
- mortality at 0.78 µM (24 h, read-out: % Mortality R1 + R2, Trial 2, contact assay, dose 0.78 μM, 24 hr): 0%
- mortality at 3.125 µM (24 h, read-out: % Mortality R1 + R2, Trial 2, contact assay, dose 3.125 μM, 24 hr): 70%
- mortality at 12.5 µM (24 h, read-out: % Mortality R1 + R2, Trial 2, contact assay, dose 12.5 μM, 24 hr): 100%
- mortality at 50 µM (24 h, read-out: % Mortality R1 + R2, Trial 2, contact assay, dose 50 μM, 24 hr): 100%
- mortality at 0.049 µM (48 h, read-out: % Mortality R1 + R2, Trial 1, contact assay, dose 0.049 μM, 48 hr): 40%
- mortality at 0.2 µM (48 h, read-out: % Mortality R1 + R2, Trial 1, contact assay, dose 0.20 μM, 48 hr): 20%
- mortality at 0.78 µM (48 h, read-out: % Mortality R1 + R2, Trial 1, contact assay, dose 0.78 μM, 48 hr): 30%
- mortality at 3.125 µM (48 h, read-out: % Mortality R1 + R2, Trial 1, contact assay, dose 3.125 μM, 48 hr): 90%
- mortality at 12.5 µM (48 h, read-out: % Mortality R1 + R2, Trial 1, contact assay, dose 12.5 μM, 48 hr): 100%
- mortality at 50 µM (48 h, read-out: % Mortality R1 + R2, Trial 1, contact assay, dose 50 μM, 48 hr): 100%
- mortality at 0.049 µM (48 h, read-out: % Mortality R1 + R2, Trial 2, contact assay, dose 0.049 μM, 48 hr): 0%
- mortality at 0.2 µM (48 h, read-out: % Mortality R1 + R2, Trial 2, contact assay, dose 0.20 μM, 48 hr): 40%
- mortality at 0.78 µM (48 h, read-out: % Mortality R1 + R2, Trial 2, contact assay, dose 0.78 μM, 48 hr): 0%
- mortality at 3.125 µM (48 h, read-out: % Mortality R1 + R2, Trial 2, contact assay, dose 3.125 μM, 48 hr): 100%
- mortality at 12.5 µM (48 h, read-out: % Mortality R1 + R2, Trial 2, contact assay, dose 12.5 μM, 48 hr): 100%
- mortality at 50 µM (48 h, read-out: % Mortality R1 + R2, Trial 2, contact assay, dose 50 μM, 48 hr): 100%
